The values that follow come from patent publication US9340590B2 (priority 2011, dated 2016).

Like-named read-outs stand apart in the source and are kept apart here. Positions of bridges follow the written chain, without caps; N, C: chain ends. Non-standard residues stand in square brackets, D forms with d. Residues, ends and D or L forms follow the SMILES beside them. Lys(Me2) = CN(C)CCCC[C@H](N)C(=O)O

One assay addresses hNav1.5 (Homo sapiens, UniProt Q14524). The assay can be described thus: cell-based.
The target of a further assay is hNav1.3 (Homo sapiens, UniProt Q9NY46). Briefly: cell-based. The note with it: IonWorks Quattro, read-out: IWQ Use Nav1.3. In general terms: Patch clamp records ionic current or voltage across a cell membrane.
Where [1] appears, read: IonWorks Quattro, Use, read-out: IWQ Use Nav1.5.

Chain of hNav1.3 (Q9NY46 whole entry, looked up): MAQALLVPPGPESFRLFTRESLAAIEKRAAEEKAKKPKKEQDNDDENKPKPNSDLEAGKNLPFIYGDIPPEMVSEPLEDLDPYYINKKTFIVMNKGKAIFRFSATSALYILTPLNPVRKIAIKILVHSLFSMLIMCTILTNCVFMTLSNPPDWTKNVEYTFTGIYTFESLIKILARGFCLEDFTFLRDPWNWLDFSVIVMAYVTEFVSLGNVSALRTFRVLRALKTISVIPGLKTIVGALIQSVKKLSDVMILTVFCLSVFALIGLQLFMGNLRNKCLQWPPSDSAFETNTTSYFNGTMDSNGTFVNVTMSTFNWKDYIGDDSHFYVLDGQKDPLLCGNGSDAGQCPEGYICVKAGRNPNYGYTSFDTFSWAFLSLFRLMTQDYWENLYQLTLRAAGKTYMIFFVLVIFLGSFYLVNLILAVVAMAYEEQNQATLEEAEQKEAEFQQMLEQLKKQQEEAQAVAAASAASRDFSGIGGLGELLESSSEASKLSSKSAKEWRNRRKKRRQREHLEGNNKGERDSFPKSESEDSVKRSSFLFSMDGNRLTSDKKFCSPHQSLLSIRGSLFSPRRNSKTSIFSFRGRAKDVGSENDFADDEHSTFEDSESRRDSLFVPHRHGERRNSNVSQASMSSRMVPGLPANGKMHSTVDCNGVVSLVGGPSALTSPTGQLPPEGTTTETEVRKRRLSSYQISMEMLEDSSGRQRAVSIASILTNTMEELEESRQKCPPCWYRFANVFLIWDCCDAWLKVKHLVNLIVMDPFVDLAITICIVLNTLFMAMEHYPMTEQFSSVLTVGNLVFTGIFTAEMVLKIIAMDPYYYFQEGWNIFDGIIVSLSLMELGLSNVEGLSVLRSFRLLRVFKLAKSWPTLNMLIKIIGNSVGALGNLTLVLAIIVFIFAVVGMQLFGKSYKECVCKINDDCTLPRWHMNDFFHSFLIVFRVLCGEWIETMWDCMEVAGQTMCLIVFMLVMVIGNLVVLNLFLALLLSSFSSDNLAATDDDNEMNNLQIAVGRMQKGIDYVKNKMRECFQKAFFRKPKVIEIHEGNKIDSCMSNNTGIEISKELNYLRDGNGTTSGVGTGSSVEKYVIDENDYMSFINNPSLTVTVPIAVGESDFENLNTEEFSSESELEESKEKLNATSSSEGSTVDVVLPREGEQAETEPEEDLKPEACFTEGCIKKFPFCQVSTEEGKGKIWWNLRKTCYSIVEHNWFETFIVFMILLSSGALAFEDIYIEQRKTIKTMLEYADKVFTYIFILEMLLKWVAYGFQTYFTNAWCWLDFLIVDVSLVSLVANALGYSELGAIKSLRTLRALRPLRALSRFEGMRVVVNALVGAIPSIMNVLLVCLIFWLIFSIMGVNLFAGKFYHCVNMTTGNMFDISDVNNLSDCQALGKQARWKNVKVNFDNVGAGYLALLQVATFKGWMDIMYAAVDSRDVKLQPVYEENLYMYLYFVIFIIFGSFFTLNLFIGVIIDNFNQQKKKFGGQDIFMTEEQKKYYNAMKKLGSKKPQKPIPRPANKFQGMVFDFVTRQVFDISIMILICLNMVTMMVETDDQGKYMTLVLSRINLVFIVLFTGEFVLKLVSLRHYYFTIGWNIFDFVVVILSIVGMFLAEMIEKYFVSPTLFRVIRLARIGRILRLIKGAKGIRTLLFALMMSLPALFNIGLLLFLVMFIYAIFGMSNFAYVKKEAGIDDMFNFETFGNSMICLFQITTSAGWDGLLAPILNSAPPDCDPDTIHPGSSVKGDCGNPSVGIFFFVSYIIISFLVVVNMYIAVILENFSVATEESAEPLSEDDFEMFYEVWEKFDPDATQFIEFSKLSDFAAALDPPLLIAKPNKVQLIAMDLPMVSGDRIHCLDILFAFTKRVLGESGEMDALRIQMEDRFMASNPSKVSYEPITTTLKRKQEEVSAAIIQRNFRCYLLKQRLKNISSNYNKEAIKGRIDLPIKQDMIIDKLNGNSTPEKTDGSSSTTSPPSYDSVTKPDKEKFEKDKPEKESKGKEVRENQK
Chain of hNav1.5 (Q14524 whole entry, looked up): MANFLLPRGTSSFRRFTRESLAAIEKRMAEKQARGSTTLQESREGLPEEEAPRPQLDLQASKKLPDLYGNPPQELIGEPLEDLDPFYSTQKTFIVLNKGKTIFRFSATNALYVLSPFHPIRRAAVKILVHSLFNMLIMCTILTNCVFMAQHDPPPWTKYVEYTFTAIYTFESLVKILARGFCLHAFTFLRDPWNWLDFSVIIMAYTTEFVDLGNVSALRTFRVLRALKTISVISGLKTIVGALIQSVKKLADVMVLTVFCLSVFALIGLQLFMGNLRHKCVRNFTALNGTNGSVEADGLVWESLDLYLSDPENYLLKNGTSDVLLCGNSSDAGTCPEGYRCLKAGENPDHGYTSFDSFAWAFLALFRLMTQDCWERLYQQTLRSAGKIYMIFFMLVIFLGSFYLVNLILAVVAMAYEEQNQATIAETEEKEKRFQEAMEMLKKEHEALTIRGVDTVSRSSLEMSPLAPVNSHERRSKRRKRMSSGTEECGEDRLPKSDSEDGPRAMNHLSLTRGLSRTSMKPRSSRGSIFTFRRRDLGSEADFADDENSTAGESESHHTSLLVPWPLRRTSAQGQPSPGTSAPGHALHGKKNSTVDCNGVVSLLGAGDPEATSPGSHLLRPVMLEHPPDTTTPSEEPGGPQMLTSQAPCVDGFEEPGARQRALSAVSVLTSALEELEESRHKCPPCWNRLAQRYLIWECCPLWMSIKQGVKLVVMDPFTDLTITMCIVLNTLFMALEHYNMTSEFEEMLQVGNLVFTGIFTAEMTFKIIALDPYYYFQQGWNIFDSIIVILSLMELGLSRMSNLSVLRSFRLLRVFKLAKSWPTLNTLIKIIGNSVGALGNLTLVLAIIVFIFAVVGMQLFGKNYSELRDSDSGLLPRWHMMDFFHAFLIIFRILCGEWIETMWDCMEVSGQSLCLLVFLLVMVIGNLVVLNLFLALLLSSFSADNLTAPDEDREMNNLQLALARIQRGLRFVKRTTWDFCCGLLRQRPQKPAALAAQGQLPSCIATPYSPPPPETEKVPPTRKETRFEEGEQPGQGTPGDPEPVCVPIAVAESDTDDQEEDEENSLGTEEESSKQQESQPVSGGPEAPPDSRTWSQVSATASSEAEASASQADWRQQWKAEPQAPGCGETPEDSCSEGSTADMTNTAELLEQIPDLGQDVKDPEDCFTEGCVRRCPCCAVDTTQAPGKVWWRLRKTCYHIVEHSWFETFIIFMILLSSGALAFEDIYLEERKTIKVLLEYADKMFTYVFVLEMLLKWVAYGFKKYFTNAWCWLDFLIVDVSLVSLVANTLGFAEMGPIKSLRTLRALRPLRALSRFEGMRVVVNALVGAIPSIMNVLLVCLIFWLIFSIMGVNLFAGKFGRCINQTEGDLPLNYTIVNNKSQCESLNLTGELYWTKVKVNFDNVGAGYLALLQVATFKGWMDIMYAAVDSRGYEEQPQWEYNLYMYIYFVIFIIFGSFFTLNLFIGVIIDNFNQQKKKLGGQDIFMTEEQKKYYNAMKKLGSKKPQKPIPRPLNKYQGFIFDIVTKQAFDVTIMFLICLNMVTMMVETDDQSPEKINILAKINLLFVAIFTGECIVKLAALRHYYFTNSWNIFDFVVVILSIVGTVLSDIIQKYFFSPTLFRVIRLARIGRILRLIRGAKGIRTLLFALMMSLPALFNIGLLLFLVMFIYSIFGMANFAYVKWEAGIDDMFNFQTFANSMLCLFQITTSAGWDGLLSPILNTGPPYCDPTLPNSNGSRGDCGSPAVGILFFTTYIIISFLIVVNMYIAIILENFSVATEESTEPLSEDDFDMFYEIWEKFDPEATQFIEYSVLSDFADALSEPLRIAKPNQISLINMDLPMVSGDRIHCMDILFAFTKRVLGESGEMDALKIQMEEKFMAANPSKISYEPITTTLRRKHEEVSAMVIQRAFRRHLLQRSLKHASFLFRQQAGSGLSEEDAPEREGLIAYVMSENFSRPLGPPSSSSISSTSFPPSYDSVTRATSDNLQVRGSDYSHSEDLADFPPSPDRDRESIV

As for `CSCC[C@@H]1NC(=O)[C@H](Cc2ccccc2)NC(=O)CNC(=O)[C@H](CC(C)C)NC(=O)[C@@H](NC(=O)[C@@H](N)CC(=O)O)CSSC[C@@H]2NC(=O)[C@@H]3CSSC[C@@H](C(=O)N[C@@H](CCCCN)C(=O)N[C@@H](Cc4ccc(O)cc4)C(=O)N[C@H](C(=O)N[C@@H](Cc4ccccc4)C(N)=O)C(C)C)NC(=O)[C@H](Cc4c[nH]c5ccccc45)NC(=O)[C@H](CCCCN)NC(=O)[C@H](Cc4cnc[nH]4)NC(=O)[C@H]([C@@H](C)O)NC(=O)[C@H](CCCNC(=N)N)NC(=O)[C@H](CO)NC(=O)[C@H](CSSC[C@H](NC(=O)[C@H](CCCCN)NC(=O)[C@H](CCCNC(=N)N)NC1=O)C(=O)N[C@@H](C(C)C)C(=O)N1CCC[C@H]1C(=O)N[C@@H](CC(=O)O)C(=O)N[C@@H](CC(N)=O)C(=O)N[C@@H](CC(=O)O)C(=O)N[C@@H](CCCCN)C(=O)N3)NC(=O)[C@H](C(C)C)NC(=O)[C@H](CC(C)C)NC(=O)[C@H](CC(N)=O)NC(=O)[C@@H]1CCCN1C(=O)[C@H](CCCNC(=N)N)NC2=O` [compound 301] (H-DCLGFMRKCVPDNDKCCRPNLVCSRTHKWCKYVF-NH2; disulfide 2-17, 9-23, 16-30), the IC50 at hNav1.5 (setting [1]) worked out at 7.88 µM; on hNav1.3 (Use) it was 0.09 µM.

With `CSCC[C@@H]1NC(=O)[C@H](Cc2ccccc2)NC(=O)CNC(=O)[C@H](CC(C)C)NC(=O)[C@@H](NC(=O)[C@@H](N)CC(=O)O)CSSC[C@@H]2NC(=O)[C@@H]3CSSC[C@@H](C(=O)N[C@@H](CCCCN)C(=O)N[C@@H](Cc4ccc(O)cc4)C(=O)N[C@H](C(=O)N[C@@H](Cc4ccccc4)C(N)=O)C(C)C)NC(=O)[C@H](Cc4c[nH]c5ccccc45)NC(=O)[C@H](CCCCN)NC(=O)[C@H](Cc4cnc[nH]4)NC(=O)[C@H]([C@@H](C)O)NC(=O)[C@H](CCCNC(=N)N)NC(=O)[C@H](CO)NC(=O)[C@H](CSSC[C@H](NC(=O)[C@H](CCCCN)NC(=O)[C@H](CCCNC(=N)N)NC1=O)C(=O)N[C@@H](Cc1ccccc1)C(=O)N1CCC[C@H]1C(=O)N[C@@H](CC(=O)O)C(=O)N[C@@H](CC(N)=O)C(=O)N[C@@H](CC(=O)O)C(=O)N[C@@H](CCCCN)C(=O)N3)NC(=O)[C@H](C(C)C)NC(=O)[C@H](CC(C)C)NC(=O)[C@H](CC(N)=O)NC(=O)[C@@H]1CCCN1C(=O)[C@H](CCCNC(=N)N)NC2=O` [compound 302] (H-DCLGFMRKCFPDNDKCCRPNLVCSRTHKWCKYVF-NH2; disulfide 2-17, 9-23, 16-30), the IC50 on hNav1.5 (setting [1]) was found to be 5.33 µM; at hNav1.3 (Use) it was 0.08 µM.

For the molecule `CSCC[C@@H]1NC(=O)[C@H](Cc2ccccc2)NC(=O)CNC(=O)[C@H](CC(C)C)NC(=O)[C@@H](NC(=O)[C@@H](N)CC(=O)O)CSSC[C@@H]2NC(=O)[C@@H]3CSSC[C@@H](C(=O)N[C@@H](CCCCN)C(=O)N[C@@H](Cc4ccc(O)cc4)C(=O)N[C@H](C(=O)N[C@@H](Cc4ccccc4)C(N)=O)C(C)C)NC(=O)[C@H](Cc4c[nH]c5ccccc45)NC(=O)[C@H](CCCCN)NC(=O)[C@H](Cc4cnc[nH]4)NC(=O)[C@H]([C@@H](C)O)NC(=O)[C@H](CCCNC(=N)N)NC(=O)[C@H](CO)NC(=O)[C@H](CSSC[C@H](NC(=O)[C@H](CCCCN)NC(=O)[C@H](CCCNC(=N)N)NC1=O)C(=O)N[C@@H](Cc1cnc[nH]1)C(=O)N1CCC[C@H]1C(=O)N[C@@H](CC(=O)O)C(=O)N[C@@H](CC(N)=O)C(=O)N[C@@H](CC(=O)O)C(=O)N[C@@H](CCCCN)C(=O)N3)NC(=O)[C@H](C(C)C)NC(=O)[C@H](CC(C)C)NC(=O)[C@H](CC(N)=O)NC(=O)[C@@H]1CCCN1C(=O)[C@H](CCCNC(=N)N)NC2=O` [compound 304] (H-DCLGFMRKCHPDNDKCCRPNLVCSRTHKWCKYVF-NH2; disulfide 2-17, 9-23, 16-30), the IC50 is 6.36 µM on hNav1.5 (setting [1]) and 0.03 µM at hNav1.3 (Use).

Consider `CSCC[C@@H]1NC(=O)[C@H](Cc2ccccc2)NC(=O)CNC(=O)[C@H](CC(C)C)NC(=O)[C@@H](NC(=O)[C@@H](N)CC(=O)O)CSSC[C@@H]2NC(=O)[C@@H]3CSSC[C@@H](C(=O)N[C@@H](CCCCN)C(=O)N[C@@H](Cc4ccc(O)cc4)C(=O)N[C@H](C(=O)N[C@@H](Cc4ccccc4)C(N)=O)C(C)C)NC(=O)[C@H](Cc4c[nH]c5ccccc45)NC(=O)[C@H](CCCCN)NC(=O)[C@H](Cc4cnc[nH]4)NC(=O)[C@H]([C@@H](C)O)NC(=O)[C@H](CCCNC(=N)N)NC(=O)[C@H](CO)NC(=O)[C@H](CSSC[C@H](NC(=O)[C@H](CCCCN)NC(=O)[C@H](CCCNC(=N)N)NC1=O)C(=O)N[C@@H](CO)C(=O)N1CCC[C@H]1C(=O)N[C@@H](CC(=O)O)C(=O)N[C@@H](CC(N)=O)C(=O)N[C@@H](CC(=O)O)C(=O)N[C@@H](CCCCN)C(=O)N3)NC(=O)[C@H](C(C)C)NC(=O)[C@H](CC(C)C)NC(=O)[C@H](CC(N)=O)NC(=O)[C@@H]1CCCN1C(=O)[C@H](CCCNC(=N)N)NC2=O` [compound 305] (H-DCLGFMRKCSPDNDKCCRPNLVCSRTHKWCKYVF-NH2; disulfide 2-17, 9-23, 16-30), for which the IC50 on hNav1.5 (setting [1]) turned out to be 4.64 µM; on hNav1.3 (Use) it was 0.09 µM.

Turning to `CC[C@H](C)[C@@H]1NC(=O)[C@@H]2CSSC[C@@H]3NC(=O)[C@H](C(C)C)NC(=O)[C@H](CC(C)C)NC(=O)[C@H](CC(N)=O)NC(=O)[C@@H]4CCCN4C(=O)[C@H](CCCCN(C)C)NC(=O)[C@H](CSSC[C@H](NC(=O)[C@@H](N)CC(=O)O)C(=O)N[C@@H](CC(C)C)C(=O)NCC(=O)N[C@@H](Cc4ccccc4)C(=O)N[C@@H](CCSC)C(=O)N[C@@H](CCCNC(=N)N)C(=O)N[C@@H](CCCCN)C(=O)N2)NC(=O)[C@H](CSSC[C@@H](C(=O)N[C@@H](CCCCN)C(=O)N[C@@H](Cc2ccc(O)cc2)C(=O)N[C@H](C(=O)N[C@@H](Cc2ccccc2)C(N)=O)C(C)C)NC(=O)[C@H](Cc2c[nH]c4ccccc24)NC(=O)[C@H](CCCCN)NC(=O)[C@H](Cc2cnc[nH]2)NC(=O)[C@H]([C@@H](C)O)NC(=O)[C@H](CCCNC(=N)N)NC(=O)[C@H](CO)NC3=O)NC(=O)[C@H](CCCCN)NC(=O)[C@H](CC(=O)O)NC(=O)[C@H](CC(N)=O)NC(=O)[C@H](CC(=O)O)NC(=O)[C@@H]2CCCN2C1=O` [compound 314] (H-DCLGFMRKCIPDNDKCC[Lys(Me2)]PNLVCSRTHKWCKYVF-NH2; disulfide 2-17, 9-23, 16-30), the IC50 amounted to 6.55 µM at hNav1.5 (setting [1]) and 0.08 µM on hNav1.3 (Use).

For `CC[C@H](C)[C@@H]1NC(=O)[C@@H]2CSSC[C@@H]3NC(=O)[C@H](C(C)C)NC(=O)[C@H](CC(C)C)NC(=O)[C@H](CC(N)=O)NC(=O)[C@@H]4CCCN4C(=O)[C@H](CCCNC(=N)N)NC(=O)[C@H](CSSC[C@H](NC(=O)[C@@H](N)CC(=O)O)C(=O)N[C@@H](CC(C)C)C(=O)NCC(=O)N[C@@H](Cc4ccccc4)C(=O)N[C@@H](CCSC)C(=O)N[C@@H](CCCNC(=N)N)C(=O)N[C@@H](CCCCN)C(=O)N2)NC(=O)[C@H](CSSC[C@@H](C(=O)N[C@@H](CCCCN)C(=O)N[C@@H](Cc2ccc(O)cc2)C(=O)N[C@H](C(=O)N[C@@H](Cc2ccccc2)C(N)=O)C(C)C)NC(=O)[C@H](Cc2c[nH]c4ccccc24)N(C)C(=O)[C@H](CCCCN)NC(=O)[C@H](Cc2c[nH]cn2)NC(=O)[C@H]([C@@H](C)O)NC(=O)[C@H](CCCNC(=N)N)NC(=O)[C@H](CO)NC3=O)NC(=O)[C@H](CCCCN)NC(=O)[C@H](CC(=O)O)NC(=O)[C@H](CC(N)=O)NC(=O)[C@H](CC(=O)O)NC(=O)[C@@H]2CCCN2C1=O` [compound 357], the IC50 against hNav1.5 (IWQ Use Nav1.5 (μM)) is above 5 µM; at hNav1.3 (Table 24, use, […]), above 5 µM.
